Assay results: article PMC10287695, “Non-covalent inhibitors of thioredoxin glutathione reductase with schistosomicidal activity in vivo” (Nature Communications, 2023)

Biological target: T1, Human TrxR1 (Homo sapiens, UniProt Q16881)
T1 construct: made in house
T1 sequence (Q16881 1-499 isoform Q16881-5): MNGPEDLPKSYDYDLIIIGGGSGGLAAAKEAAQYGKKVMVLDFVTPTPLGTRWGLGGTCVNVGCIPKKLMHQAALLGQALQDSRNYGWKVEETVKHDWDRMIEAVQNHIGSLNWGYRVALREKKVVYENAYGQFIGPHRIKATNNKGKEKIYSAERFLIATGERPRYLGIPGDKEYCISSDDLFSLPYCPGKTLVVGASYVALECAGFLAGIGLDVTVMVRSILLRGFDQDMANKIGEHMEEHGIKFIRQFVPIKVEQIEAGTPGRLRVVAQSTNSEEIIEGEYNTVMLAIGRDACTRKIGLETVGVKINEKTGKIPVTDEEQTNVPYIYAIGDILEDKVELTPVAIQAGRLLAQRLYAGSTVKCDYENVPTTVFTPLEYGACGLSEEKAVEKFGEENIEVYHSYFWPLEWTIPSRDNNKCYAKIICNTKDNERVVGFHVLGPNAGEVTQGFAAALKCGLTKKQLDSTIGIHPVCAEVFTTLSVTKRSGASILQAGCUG
Assay: Human TrxR1 enzyme inhibition (DTNB reduction)
Assay type: biochemical
Conditions: 66.7 µM, 6 h preincubation; read-out: Human TrxR1 IC50 (µM) or inhibition (%) at 66.7 µM: inhibition
Procedure: Recombinant TGR, human TrxR1, B. malayi (Bm)TrxR and human GR proteins were expressed and purified as described[20],[69],[79]. The codon optimized sequence for P. falciparum (PfTrxR, https://www.ncbi.nlm.nih.gov/protein/CAA60574.1/) with an N-terminal 6-His tag was synthesized and inserted into pET15b (GenScript) and expressed in BL21 (DE3) cells and purified as described for human GR[20]. TGR and TrxR enzyme inhibition assays were performed in triplicate at 25 °C as described[20] in 0.1 M potassium phosphate (pH 7.4), 10 mM EDTA, 100 µM NADPH and 0.01% Tween-20. […] The reaction was started with addition of an equal volume of DTNB (6 mM) and NADPH (100 µM) and the increase in A412 during the first 3 min was recorded. […] The reaction was preincubated for 15 min. Activity was initiated with the addition of 1 mM GSSG and 100 μM NADPH and initial rates of NADPH oxidation were monitored at 340 nm. The reactions were done in triplicate. The IC50 was calculated in GraphPad Prism.

SMILES	inhibition at 66.7 µM [%]
C#CCN(Cc1nc(-c2ccccc2)oc1C)[C@@H]1C[C@@H]2C[C@H]([C@H]1C)C2(C)C [Compound 6]	28.9

Same assay, conditions: 15 min preincubation (enzyme + 100 µM NADPH + compound); read-out: Human TrxR1 IC50

SMILES	IC50 [µM]
CCc1ccccc1-c1nc(CN[C@@H]2C[C@@H]3C[C@H]([C@H]2C)C3(C)C)c(C)o1 [Compound 2]	> 66.7
C#CCN(Cc1nc(-c2ccccc2)oc1C)[C@@H]1C[C@@H]2C[C@H]([C@H]1C)C2(C)C [Compound 6]	> 66.7

Same assay, conditions: 6 h preincubation; read-out: Human TrxR1 IC50 (µM) or inhibition (%) at 66.7 µM: IC50

SMILES	IC50 [µM]
CCc1ccccc1-c1nc(CN[C@@H]2C[C@@H]3C[C@H]([C@H]2C)C3(C)C)c(C)o1 [Compound 2]	50 ± 13.6

Same assay, conditions: hsTrxR, 15 minutes pre-incubation, compound 15 µM

SMILES	inhibition at 15 µM [%]
CCc1ccccc1-c1nc(CN[C@@H]2C[C@@H]3C[C@H]([C@H]2C)C3(C)C)c(C)o1 [Compound 2]	2.2

Same assay, conditions: hsTrxR, 15 minutes pre-incubation, compound 30 µM

SMILES	inhibition at 30 µM [%]
CCc1ccccc1-c1nc(CN[C@@H]2C[C@@H]3C[C@H]([C@H]2C)C3(C)C)c(C)o1 [Compound 2]	4.72
C#CCN(Cc1nc(-c2ccccc2)oc1C)[C@@H]1C[C@@H]2C[C@H]([C@H]1C)C2(C)C [Compound 6]	1.95

Same assay, conditions: hsTrxR, 15 minutes pre-incubation, compound 66.7 µM; read-out: % inhibition

SMILES	inhibition at 66.7 µM [%]
CCc1ccccc1-c1nc(CN[C@@H]2C[C@@H]3C[C@H]([C@H]2C)C3(C)C)c(C)o1 [Compound 2]	11.5
C#CCN(Cc1nc(-c2ccccc2)oc1C)[C@@H]1C[C@@H]2C[C@H]([C@H]1C)C2(C)C [Compound 6]	2.61

Biological target: T2, Human GR (Homo sapiens, UniProt P00390)
T2 construct: made in house
T2 sequence (P00390 44-522): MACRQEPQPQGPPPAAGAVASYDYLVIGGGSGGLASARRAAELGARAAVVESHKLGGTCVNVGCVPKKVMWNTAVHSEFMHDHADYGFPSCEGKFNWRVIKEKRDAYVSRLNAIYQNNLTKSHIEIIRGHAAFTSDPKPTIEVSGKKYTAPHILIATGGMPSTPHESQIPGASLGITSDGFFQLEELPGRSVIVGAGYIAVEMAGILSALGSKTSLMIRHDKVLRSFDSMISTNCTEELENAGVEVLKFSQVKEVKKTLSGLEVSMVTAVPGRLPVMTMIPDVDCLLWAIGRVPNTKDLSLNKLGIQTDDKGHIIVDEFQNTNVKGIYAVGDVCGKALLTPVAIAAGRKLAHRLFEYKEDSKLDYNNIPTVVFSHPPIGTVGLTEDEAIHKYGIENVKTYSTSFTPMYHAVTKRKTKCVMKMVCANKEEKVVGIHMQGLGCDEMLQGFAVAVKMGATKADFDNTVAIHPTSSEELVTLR
Assay: Human GR enzyme inhibition (GSSG reduction, NADPH oxidation)
Assay type: biochemical
Conditions: 66.7 µM

SMILES	Human GR (inhibition at 66.7 µM)
CCc1ccccc1-c1nc(CN[C@@H]2C[C@@H]3C[C@H]([C@H]2C)C3(C)C)c(C)o1 [Compound 2]	n.i.
C#CCN(Cc1nc(-c2ccccc2)oc1C)[C@@H]1C[C@@H]2C[C@H]([C@H]1C)C2(C)C [Compound 6]	n.i.

Same assay, conditions: hGR, 15 minutes pre-incubation, compound 15 µM; read-out: % inhibition

SMILES	inhibition at 15 µM [%]
CCc1ccccc1-c1nc(CN[C@@H]2C[C@@H]3C[C@H]([C@H]2C)C3(C)C)c(C)o1 [Compound 2]	-0.995
C#CCN(Cc1nc(-c2ccccc2)oc1C)[C@@H]1C[C@@H]2C[C@H]([C@H]1C)C2(C)C [Compound 6]	-0.749

Same assay, conditions: hGR, 15 minutes pre-incubation, compound 30 µM; read-out: % inhibition

SMILES	inhibition at 30 µM [%]
CCc1ccccc1-c1nc(CN[C@@H]2C[C@@H]3C[C@H]([C@H]2C)C3(C)C)c(C)o1 [Compound 2]	-1.9

Same assay, conditions: hGR, 15 minutes pre-incubation, compound 66.7 µM; read-out: % inhibition

SMILES	inhibition at 66.7 µM [%]
CCc1ccccc1-c1nc(CN[C@@H]2C[C@@H]3C[C@H]([C@H]2C)C3(C)C)c(C)o1 [Compound 2]	-0.827
C#CCN(Cc1nc(-c2ccccc2)oc1C)[C@@H]1C[C@@H]2C[C@H]([C@H]1C)C2(C)C [Compound 6]	-0.295

Same assay, conditions: hGR, 6 hours pre-incubation, compound 15 µM; read-out: % inhibition

SMILES	inhibition at 15 µM [%]
CCc1ccccc1-c1nc(CN[C@@H]2C[C@@H]3C[C@H]([C@H]2C)C3(C)C)c(C)o1 [Compound 2]	-5.17
C#CCN(Cc1nc(-c2ccccc2)oc1C)[C@@H]1C[C@@H]2C[C@H]([C@H]1C)C2(C)C [Compound 6]	-0.648

Same assay, conditions: hGR, 6 hours pre-incubation, compound 30 µM; read-out: % inhibition

SMILES	inhibition at 30 µM [%]
CCc1ccccc1-c1nc(CN[C@@H]2C[C@@H]3C[C@H]([C@H]2C)C3(C)C)c(C)o1 [Compound 2]	-3.97

Same assay, conditions: hGR, 6 hours pre-incubation, compound 66.7 µM; read-out: % inhibition

SMILES	inhibition at 66.7 µM [%]
CCc1ccccc1-c1nc(CN[C@@H]2C[C@@H]3C[C@H]([C@H]2C)C3(C)C)c(C)o1 [Compound 2]	-3.29
C#CCN(Cc1nc(-c2ccccc2)oc1C)[C@@H]1C[C@@H]2C[C@H]([C@H]1C)C2(C)C [Compound 6]	-0.21

Test system: S. mansoni adult worms
Assay: GSH/GSSG ratio in ex vivo adult worms
Assay type: cell-based
Conditions: 1 hr; first data set (r117-133), baseline 55.82
Procedure: We assessed GSH/GSSG levels experimentally by treating S. mansoni adult worms with 50 µM of compounds, or respective controls 5 µM Auranofin, 50 µM PZQ or 50 µM MZM and 0.01% DMSO for 3 h. Worm homogenate was prepared by washing three times with PBS to remove residual compounds and ten volumes of ice cold 5% sulfosalicylic acid was added. Worms were manually homogenized on ice using VWR Pellet Mixer Adaptor. The worm suspension was centrifuged at 14000 × g, 4 °C for 10 min and the acid supernatants transferred. An equal volume of ice-cold neutralization buffer (500 mM HEPES, pH 8.0) was added to the acid supernatants.
GSH/GSSG assay was performed by diluting the acid supernatant (5-fold) with ice-cold dilution buffer (250 mM HEPES, pH 7.5). Using white opaque luminescence plate on ice, 25 µl of the diluted worm acid supernatant was added each well in triplicates. Total glutathione lysis reagent and GSSG lysis reagent, which contains alkylating agent N-ethylmaleimide (25 mM) were prepared following manufactures protocol and added to respective wells along with blank for background. Total glutathione lysis reagent or oxidized glutathione lysis reagent (25 µl) was added to respective wells containing worm acid supernatants and the plate was shaken for 5 min. Luciferin generation reagent (LGR) (50 µl) was added to all wells, briefly shaken and incubated at room temperature for 30 min. Luciferin detection reagent (LDR) (100 µl) was added to all wells, briefly shaken and incubated for 15 min at room temperature and the luminescence measured using microplate imager (BioTek Cytation3). GSH/GSSH ratio for DMSO control and compounds were calculated using (Net DMSO total glutathione RFU) – (Net DMSO GSSG RFU)/ (Net DMSO GSSG RFU)/2 and (Net inhibitor total glutathione RFU) – (Net inhibitor GSSG RFU)/ (Net inhibitor GSSG RFU)/2 respectively.

SMILES	Ratio GSH/GSSG
CCc1ccccc1-c1nc(CN[C@@H]2C[C@@H]3C[C@H]([C@H]2C)C3(C)C)c(C)o1 [Compound 2]	34.19

Same assay, conditions: 1 hr; first data set (r117-133), baseline = 100

SMILES	% Ratio GSH/GSSG [%]
CCc1ccccc1-c1nc(CN[C@@H]2C[C@@H]3C[C@H]([C@H]2C)C3(C)C)c(C)o1 [Compound 2]	61.2531

Same assay, conditions: 1 hr; third data set

SMILES	Reduction (%) in GSH/GSSG ratio [%]
C#CCN(Cc1nc(-c2ccccc2)oc1C)[C@@H]1C[C@@H]2C[C@H]([C@H]1C)C2(C)C [Compound 6]	3.259

Same assay, conditions: 1 hr; third data set (r147-159), 0hr 72.45

SMILES	Ratio GSH/GSSG
C#CCN(Cc1nc(-c2ccccc2)oc1C)[C@@H]1C[C@@H]2C[C@H]([C@H]1C)C2(C)C [Compound 6]	70.09

Same assay, conditions: 1 hr; third data set (r147-159), 0hr = 100

SMILES	% Ratio GSH/GSSG [%]
C#CCN(Cc1nc(-c2ccccc2)oc1C)[C@@H]1C[C@@H]2C[C@H]([C@H]1C)C2(C)C [Compound 6]	96.7414

Same assay, conditions: 1 hr; third data set, (values given as fraction)

SMILES	Reduction (%) in GSH/GSSG ratio [%]
C#CCN(Cc1nc(-c2ccccc2)oc1C)[C@@H]1C[C@@H]2C[C@H]([C@H]1C)C2(C)C [Compound 6]	0.0326

Same assay, conditions: 3 hr; first data set (r117-133), baseline 55.82

SMILES	Ratio GSH/GSSG
CCc1ccccc1-c1nc(CN[C@@H]2C[C@@H]3C[C@H]([C@H]2C)C3(C)C)c(C)o1 [Compound 2]	28.99

Same assay, conditions: 3 hr; first data set (r117-133), baseline = 100

SMILES	% Ratio GSH/GSSG [%]
CCc1ccccc1-c1nc(CN[C@@H]2C[C@@H]3C[C@H]([C@H]2C)C3(C)C)c(C)o1 [Compound 2]	51.9337

Same assay, conditions: 3 hr; third data set

SMILES	Reduction (%) in GSH/GSSG ratio [%]
C#CCN(Cc1nc(-c2ccccc2)oc1C)[C@@H]1C[C@@H]2C[C@H]([C@H]1C)C2(C)C [Compound 6]	8.6517

Same assay, conditions: 3 hr; third data set (r147-159), 0hr 72.45

SMILES	Ratio GSH/GSSG
C#CCN(Cc1nc(-c2ccccc2)oc1C)[C@@H]1C[C@@H]2C[C@H]([C@H]1C)C2(C)C [Compound 6]	66.18

Same assay, conditions: 3 hr; third data set (r147-159), 0hr = 100

SMILES	% Ratio GSH/GSSG [%]
C#CCN(Cc1nc(-c2ccccc2)oc1C)[C@@H]1C[C@@H]2C[C@H]([C@H]1C)C2(C)C [Compound 6]	91.3483

Same assay, conditions: 3 hr; third data set, (values given as fraction)

SMILES	Reduction (%) in GSH/GSSG ratio [%]
C#CCN(Cc1nc(-c2ccccc2)oc1C)[C@@H]1C[C@@H]2C[C@H]([C@H]1C)C2(C)C [Compound 6]	0.09

Same assay, conditions: adult worms, 3 h exposure to compounds at 50 μM

SMILES	Decrease (%) in GSH/GSSG ratio [%]
CCc1ccccc1-c1nc(CN[C@@H]2C[C@@H]3C[C@H]([C@H]2C)C3(C)C)c(C)o1 [Compound 2]	39
C#CCN(Cc1nc(-c2ccccc2)oc1C)[C@@H]1C[C@@H]2C[C@H]([C@H]1C)C2(C)C [Compound 6]	32
